The record followed here is ChEMBL document CHEMBL1201862, “PubChem BioAssay data set” (2004).

Among the test systems are OVCAR-8; SF-295; HT-29; SK-MEL-28; OVCAR-3; RPMI-8226; IGROV-1; SK-MEL-2; A549; OVCAR-5; HCT-116; EKVX; COLO 205; SR; HOP-92.
Common to all, as to assay: growth of human tumour cells (NCI), 48 h

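How tested: cells in 96-well plates exposed to compound for 48 hours at five concentrations. GI50 = concentration required for 50% inhibition of growth.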 Calls of active or inactive are those of the source. Cut-off read from the data, not from the text of the source: active = GI50 up to about 1.1 µM and inactive = higher.

Regarding `CC1(C)CC(/C=C2/OC(=O)c3ccccc32)=C(C(N)=O)C(=O)O1`, the GI50 with OVCAR-8, in the assay with SF-295, with HT-29, with SK-MEL-28, in the assay on OVCAR-3 and in the assay with RPMI-8226 was > 100 µM (inactive) each time. Also, the GI50 in the assay on IGROV-1, with SK-MEL-2, with A549, in the assay on OVCAR-5, with HCT-116 and with EKVX was > 100 µM (inactive) each time. Also, the GI50 with COLO 205 was 30.8 µM (inactive); in the assay on SR, > 100 µM (inactive).

As for `O=C(Nc1ccccc1C(=O)O)C(=O)C(C(=O)c1ccccc1-c1ccccc1)C1OC(=O)c2ccccc21` (centres undefined), the GI50 is 15.7 µM (inactive) in the assay on OVCAR-8; 25.2 µM (inactive) in the assay on SF-295; 29.7 µM (inactive) with HT-29; 19.4 µM (inactive) in the assay on SK-MEL-28; 16.6 µM (inactive) with OVCAR-3; 25.2 µM (inactive) with RPMI-8226. Further, the GI50 with IGROV-1 was 25.6 µM (inactive); in the assay on SK-MEL-2, 38 µM (inactive); in the assay with A549, 31.4 µM (inactive); with OVCAR-5, 23.6 µM (inactive); in the assay with HCT-116 it was 22 µM (inactive); with EKVX it was 23.4 µM (inactive). The results for the GI50 with COLO 205 and in the assay on SR were 24 µM (inactive) and 18.3 µM (inactive), respectively.

Consider `OCCc1cnco1`, for which the GI50 in the assay with OVCAR-8, with SF-295, in the assay on HT-29, in the assay with SK-MEL-28, with OVCAR-3 and with RPMI-8226 was > 100 µM (inactive) in each case. For the same compound, the GI50 with IGROV-1, in the assay on A549, with HCT-116, in the assay with EKVX and in the assay with COLO 205 was > 100 µM (inactive) each time.

Consider `CC(N)Cc1ccc(C(=O)Cl)cc1` (centres undefined), for which the GI50 in the assay with OVCAR-8, in the assay with SF-295, with HT-29, in the assay on SK-MEL-28, with OVCAR-3 and with RPMI-8226 was > 100 µM (inactive) each time. In addition, the GI50 in the assay with IGROV-1, with SK-MEL-2, in the assay with A549, in the assay with HCT-116, in the assay on EKVX and in the assay with COLO 205 was > 100 µM (inactive) each time.

Turning to `COc1ccc(C(=O)C(C(=O)C(=O)Nc2nc3ccc(OC)cc3s2)c2ccc(OC)cc2)cc1` (centres undefined), the GI50 in the assay with OVCAR-8, in the assay on SF-295, in the assay with HT-29, in the assay on SK-MEL-28, with OVCAR-3 and in the assay on RPMI-8226 was > 100 µM (inactive) each time. Further, the GI50 in the assay with IGROV-1, with SK-MEL-2, with A549, in the assay with OVCAR-5, in the assay on HOP-92 and with EKVX was > 100 µM (inactive) each time. Also, the GI50 in the assay on COLO 205 was > 100 µM (inactive).

As for `N#CC(C(=O)CCCC(=O)Nc1ccc(Cl)cc1Cl)c1ccc(Cl)cc1` (centres undefined), the GI50 in the assay on OVCAR-8, in the assay on SF-295, with HT-29, in the assay with SK-MEL-28, with OVCAR-3 and with RPMI-8226 was > 100 µM (inactive) throughout. In addition, the GI50 with IGROV-1, with SK-MEL-2, in the assay with A549, in the assay on OVCAR-5, in the assay on HCT-116 and in the assay on HOP-92 was > 100 µM (inactive) each time. Moreover, the GI50 in the assay on COLO 205 and in the assay on SR was > 100 µM (inactive) throughout.

On to `CN1C(=O)C2C3C=C4c5ccccc5N(c5ccccc5)C4(C2C1=O)[C@H]1C(=O)N(C)C(=O)[C@@H]31` (some centres undefined), for which the GI50 with OVCAR-8, in the assay on SF-295, with HT-29, in the assay with SK-MEL-28, with OVCAR-3 and in the assay with RPMI-8226 was > 100 µM (inactive) each time. In addition, the GI50 in the assay on SK-MEL-2, in the assay with A549, with OVCAR-5, in the assay with HCT-116, in the assay with HOP-92 and in the assay with EKVX was > 100 µM (inactive) throughout. Moreover, the GI50 with COLO 205 and with SR was > 100 µM (inactive) in each case.

With `c1ccc2cc3[s+]snc3cc2c1`, the GI50 in the assay on OVCAR-8, with SF-295, in the assay on HT-29, with SK-MEL-28, in the assay on OVCAR-3 and in the assay with IGROV-1 was > 100 µM (inactive) in each case. For the same compound, the GI50 in the assay on SK-MEL-2, in the assay on A549, with OVCAR-5, in the assay with HCT-116, with EKVX and in the assay on COLO 205 was > 100 µM (inactive) each time. Further, the GI50 in the assay with SR is > 100 µM (inactive).

On to `Nc1ccn(CCOC(=O)c2ccccc2)c(=O)n1`, for which the GI50 with OVCAR-8, in the assay on SF-295, in the assay on HT-29, in the assay on SK-MEL-28, in the assay on OVCAR-3 and in the assay on RPMI-8226 was > 100 µM (inactive) in each case. For the same compound, the GI50 with IGROV-1, in the assay with SK-MEL-2, in the assay with A549, in the assay with OVCAR-5, in the assay on HCT-116 and in the assay with HOP-92 was > 100 µM (inactive) each time. In addition, the GI50 in the assay with EKVX and in the assay on COLO 205 was > 100 µM (inactive) each time.

Regarding `COC1OC(CO)C(O)C(NC(=O)N(C)N=O)C1O` (centres undefined), the GI50 with OVCAR-8, with SF-295, in the assay with HT-29, in the assay with SK-MEL-28, in the assay with OVCAR-3 and in the assay on RPMI-8226 was > 100 µM (inactive) each time. Also, the GI50 in the assay with IGROV-1, in the assay on SK-MEL-2, in the assay on A549, in the assay with HCT-116, with HOP-92 and with EKVX was > 100 µM (inactive) throughout. Moreover, the GI50 in the assay on COLO 205 and with SR was > 100 µM (inactive) in each case.

For `COC(=O)Cc1cc(=O)n2c3ccccc3n(C)c2c1C#N`, the GI50 in the assay with OVCAR-8, in the assay on SF-295, in the assay on HT-29, in the assay with SK-MEL-28, in the assay with OVCAR-3 and in the assay on RPMI-8226 was > 100 µM (inactive) each time. Besides, the GI50 with IGROV-1, in the assay with SK-MEL-2, with A549, in the assay with OVCAR-5, in the assay with HCT-116 and in the assay with EKVX was > 100 µM (inactive) in each case. Besides, the GI50 in the assay on COLO 205 and in the assay with SR was > 100 µM (inactive) in each case.

On to `CC(C)(C)c1ccnc(/N=C2\N/C(=N\c3cc(C(C)(C)C)ccn3)c3ccccc32)c1`, for which the GI50 with OVCAR-8 was 17.9 µM (inactive); in the assay with SF-295 it was 23.4 µM (inactive); in the assay on HT-29 it was 12.4 µM (inactive); in the assay with SK-MEL-28 it was 24.4 µM (inactive); with OVCAR-3, 17.8 µM (inactive); in the assay with IGROV-1, 23.1 µM (inactive). Moreover, the GI50 was 56.9 µM (inactive) with SK-MEL-2; 26.1 µM (inactive) with A549; > 100 µM (inactive) in the assay on OVCAR-5; 14.6 µM (inactive) in the assay on HCT-116; 22.6 µM (inactive) in the assay with HOP-92; 57.9 µM (inactive) in the assay with EKVX. Moreover, the GI50 in the assay with COLO 205 was > 100 µM (inactive); in the assay on SR it was 31.4 µM (inactive).

As to `O=C(O)CNc1c2ccccc2[n+]([O-])c2ccccc12`, the GI50 is 78.7 µM (inactive) with OVCAR-8; > 100 µM (inactive) in the assay on SF-295; > 100 µM (inactive) with HT-29; 42.2 µM (inactive) in the assay on SK-MEL-28; > 100 µM (inactive) in the assay with OVCAR-3; 31.8 µM (inactive) in the assay on RPMI-8226. Further, the GI50 in the assay on IGROV-1 is > 100 µM (inactive); in the assay with SK-MEL-2, > 100 µM (inactive); in the assay with A549, > 100 µM (inactive); in the assay on OVCAR-5, > 100 µM (inactive); in the assay on HCT-116 it was 44.6 µM (inactive); in the assay on EKVX it was > 100 µM (inactive). Further, the GI50 with COLO 205 is 72.3 µM (inactive).

`Cn1nc(-c2ccccc2)c(C(=O)/C=C/c2ccc(Cl)cc2)c(N2CCOCC2)c1=O`: the GI50 is 4.13 µM (inactive) with OVCAR-8; 0.412 µM (active) in the assay on SF-295; 1.83 µM (inactive) in the assay on HT-29; 2.58 µM (inactive) in the assay with SK-MEL-28; 2.34 µM (inactive) in the assay on RPMI-8226; 4.22 µM (inactive) with IGROV-1. Moreover, the GI50 in the assay on A549 was 3.89 µM (inactive); in the assay with HCT-116, 1.85 µM (inactive); in the assay with HOP-92, 2.11 µM (inactive); in the assay on EKVX, 8.49 µM (inactive); with COLO 205 it was 1.99 µM (inactive).

For the compound `N#C/C(=C\c1ccccc1O)C(N)=O`, the GI50 is > 100 µM (inactive) with OVCAR-8; > 100 µM (inactive) in the assay with SF-295; 86.9 µM (inactive) in the assay with HT-29; > 100 µM (inactive) in the assay with SK-MEL-28; 48.5 µM (inactive) in the assay with OVCAR-3; 60.8 µM (inactive) with RPMI-8226. For the same compound, the GI50 is > 100 µM (inactive) in the assay on IGROV-1; 62.1 µM (inactive) in the assay with SK-MEL-2; > 100 µM (inactive) in the assay on A549; > 100 µM (inactive) with OVCAR-5; 77.3 µM (inactive) in the assay with HCT-116; 32.3 µM (inactive) in the assay with HOP-92. The figures for the GI50 in the assay on EKVX and with COLO 205 were 59.4 µM (inactive) and 61.8 µM (inactive), respectively.
